Laboratory results from ChEMBL document CHEMBL1201862, “PubChem BioAssay data set” (2004).
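Test compounds were applied to cells in 96-well plates for 48 hours at 5 doses. The concentration for 50% growth inhibition is given as GI50.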 The source made the active and inactive calls. No stated cut-off is given here; in the data, active = GI50 up to about 1.1 µM and inactive = higher.

Experiments:
Assay in all cases: growth of human tumour cells (NCI), 48 h
SK-MEL-2 = tested on: SK-MEL-2
KM12 = tested on: KM12
OVCAR-3 = tested on: OVCAR-3
SK-MEL-5 = tested on: SK-MEL-5
HCC 2998 = tested on: HCC 2998
A549 = tested on: A549
SF-295 = tested on: SF-295
NCI-H23 = tested on: NCI-H23
HOP-62 = tested on: HOP-62
IGROV-1 = tested on: IGROV-1
HOP-92 = tested on: HOP-92
OVCAR-5 = tested on: OVCAR-5
UACC-62 = tested on: UACC-62
EKVX = tested on: EKVX
T47D = tested on: T47D
RXF 393 = tested on: RXF 393
TK-10 = tested on: TK-10
MOLT-4 = tested on: MOLT-4
NCI-H226 = tested on: NCI-H226
NCI-H522 = tested on: NCI-H522

SMILES	GI50 (SK-MEL-2)	GI50 (KM12)	GI50 (OVCAR-3)	GI50 (SK-MEL-5)	GI50 (HCC 2998)	GI50 (A549)	GI50 (SF-295)	GI50 (NCI-H23)	GI50 (HOP-62)	GI50 (IGROV-1)	GI50 (HOP-92)	GI50 (OVCAR-5)	GI50 (UACC-62)	GI50 (EKVX)	GI50 (T47D)	GI50 (RXF 393)	GI50 (TK-10)	GI50 (MOLT-4)	GI50 (NCI-H226)	GI50 (NCI-H522)
COc1ccn(CC(=O)c2cc3ccccc3[nH]2)c(=O)n1	> 100 µM (inactive)	> 100 µM (inactive)	> 100 µM (inactive)	> 100 µM (inactive)	> 100 µM (inactive)	> 100 µM (inactive)	> 100 µM (inactive)	> 100 µM (inactive)	> 100 µM (inactive)	> 100 µM (inactive)	49.7 µM (inactive)	> 100 µM (inactive)	> 100 µM (inactive)	> 100 µM (inactive)	> 100 µM (inactive)	> 100 µM (inactive)	> 100 µM (inactive)	> 100 µM (inactive)	> 100 µM (inactive)	> 100 µM (inactive)
CC1(c2nc3ccccc3[nH]2)CCC(C(N)=O)C(C)(C)O1 (stereo not drawn)	> 100 µM (inactive)	> 100 µM (inactive)	> 100 µM (inactive)	> 100 µM (inactive)	> 100 µM (inactive)	> 100 µM (inactive)	> 100 µM (inactive)	> 100 µM (inactive)	> 100 µM (inactive)	> 100 µM (inactive)	> 100 µM (inactive)	> 100 µM (inactive)	> 100 µM (inactive)	> 100 µM (inactive)	> 100 µM (inactive)	> 100 µM (inactive)	> 100 µM (inactive)	> 100 µM (inactive)	> 100 µM (inactive)	> 100 µM (inactive)
O=C1N=C(Nc2ccccc2Cl)N/C1=C\c1ccc(Cl)cc1Cl	18.9 µM (inactive)	45.6 µM (inactive)	66.1 µM (inactive)	71.9 µM (inactive)	53.5 µM (inactive)	98.9 µM (inactive)	60.8 µM (inactive)	> 100 µM (inactive)	62.4 µM (inactive)	79.4 µM (inactive)	39.9 µM (inactive)	> 100 µM (inactive)	> 100 µM (inactive)	> 100 µM (inactive)	> 100 µM (inactive)	15.5 µM (inactive)	> 100 µM (inactive)	66.8 µM (inactive)	25.1 µM (inactive)	11.9 µM (inactive)
COC(=O)c1ccccc1/C=C1\Cc2c(C)cc(C)cc2C1=O	> 100 µM (inactive)	> 100 µM (inactive)	> 100 µM (inactive)	> 100 µM (inactive)	> 100 µM (inactive)	> 100 µM (inactive)	> 100 µM (inactive)		> 100 µM (inactive)	> 100 µM (inactive)	> 100 µM (inactive)		> 100 µM (inactive)	> 100 µM (inactive)	> 100 µM (inactive)	> 100 µM (inactive)	> 100 µM (inactive)	> 100 µM (inactive)	> 100 µM (inactive)	> 100 µM (inactive)
CC(=S)N/C=C1/C(=O)C=C(C)OC1=O	> 100 µM (inactive)	> 100 µM (inactive)	> 100 µM (inactive)	90.2 µM (inactive)	> 100 µM (inactive)	> 100 µM (inactive)	> 100 µM (inactive)	> 100 µM (inactive)	> 100 µM (inactive)	> 100 µM (inactive)	> 100 µM (inactive)	> 100 µM (inactive)	> 100 µM (inactive)	> 100 µM (inactive)	> 100 µM (inactive)	> 100 µM (inactive)	> 100 µM (inactive)	> 100 µM (inactive)	> 100 µM (inactive)	> 100 µM (inactive)
COc1ccc2c(c1)CCC(CN1CCN(CCOC(c3ccc(F)cc3)c3ccc(F)cc3)CC1)=C2	15.8 µM (inactive)	15.1 µM (inactive)	16.9 µM (inactive)	5.22 µM (inactive)	4.89 µM (inactive)	27.5 µM (inactive)	22.2 µM (inactive)	14.8 µM (inactive)	33.9 µM (inactive)	28.1 µM (inactive)	16.1 µM (inactive)	23.1 µM (inactive)	16.1 µM (inactive)	6.07 µM (inactive)	8.45 µM (inactive)	11.2 µM (inactive)	14.3 µM (inactive)	10 µM (inactive)	13 µM (inactive)	13.9 µM (inactive)
CC1CC[C@@]2(OC1)OC1C[C@H]3[C@@H]4CC[C@H]5CC(OC6OC(CO)C(OC7OC(CO)C(O)C(O)C7OC7OC(CO)C(O)C(O)C7O)C(O)C6O)CCC5(C)[C@H]4CCC3(C)C1[C@@H]2C (stereo partly drawn)	2.38 µM (inactive)	3.33 µM (inactive)	1.8 µM (inactive)	6.89 µM (inactive)	1.04 µM (active)	2.1 µM (inactive)	4.26 µM (inactive)	3.89 µM (inactive)	1.44 µM (inactive)	1.04 µM (active)	5.2 µM (inactive)	2.25 µM (inactive)	8.95 µM (inactive)	0.977 µM (active)	2.16 µM (inactive)	1.05 µM (active)	1.61 µM (inactive)	1.29 µM (inactive)	1.34 µM (inactive)	1.63 µM (inactive)
C#CCSC(C=C=C)P(=O)(OC(C)C)OC(C)C (stereo not drawn)	> 100 µM (inactive)	> 100 µM (inactive)	> 100 µM (inactive)	> 100 µM (inactive)	28.4 µM (inactive)	> 100 µM (inactive)	> 100 µM (inactive)	> 100 µM (inactive)	> 100 µM (inactive)	45.7 µM (inactive)	> 100 µM (inactive)	> 100 µM (inactive)	> 100 µM (inactive)	> 100 µM (inactive)	> 100 µM (inactive)	> 100 µM (inactive)	43.2 µM (inactive)	21.5 µM (inactive)	> 100 µM (inactive)	23.3 µM (inactive)
CC(=N\N)/C(C)=N/N=C(C)/C(C)=N/N	> 100 µM (inactive)	> 100 µM (inactive)	> 100 µM (inactive)	> 100 µM (inactive)	> 100 µM (inactive)	> 100 µM (inactive)	> 100 µM (inactive)	> 100 µM (inactive)	> 100 µM (inactive)	> 100 µM (inactive)	> 100 µM (inactive)	> 100 µM (inactive)		> 100 µM (inactive)	> 100 µM (inactive)	> 100 µM (inactive)	> 100 µM (inactive)		> 100 µM (inactive)	> 100 µM (inactive)
CCCCCCCCCCCCC(O)C1CCC(C(O)CCCCC(O)CCCCCC2CC(CC(C)=O)C(=O)O2)O1 (stereo not drawn)	4.95 µM (inactive)	1.63 µM (inactive)	2.09 µM (inactive)	0.0931 µM (active)	8.18 µM (inactive)	3.21 µM (inactive)	0.133 µM (active)	< 0.01 µM (active)	4.58 µM (inactive)	5.78 µM (inactive)	0.986 µM (active)	8.75 µM (inactive)	1.7 µM (inactive)	3.25 µM (inactive)	2.77 µM (inactive)	4.29 µM (inactive)	4.99 µM (inactive)		1.82 µM (inactive)	4.15 µM (inactive)
CCCCCCCCCC[C@@H](O)[C@H]1CC[C@@H]([C@H]2CC[C@H]([C@H](O)CCCCCCCCCC[C@@H]3CC(CC(C)=O)C(=O)O3)O2)O1 (stereo partly drawn)	4.94 µM (inactive)	2.52 µM (inactive)	3.75 µM (inactive)	0.01 µM (active)	19.1 µM (inactive)	2.16 µM (inactive)	1.77 µM (inactive)	0.00223 µM (active)	7.55 µM (inactive)	8.28 µM (inactive)	17 µM (inactive)	48.1 µM (inactive)	3.92 µM (inactive)	0.372 µM (active)	1.7 µM (inactive)	4.99 µM (inactive)	4.73 µM (inactive)	4.13 µM (inactive)	1 µM (active)	12.8 µM (inactive)
CC(=O)O[C@H]1C[C@H](O[C@H]2[C@@H](O)C[C@H](O[C@H]3[C@@H](O)C[C@H](O[C@H]4CC[C@@]5(C)[C@H](CC[C@@H]6[C@@H]5CC[C@]5(C)[C@@H](C7=CC(=O)OC7)CC[C@]65O)C4)O[C@@H]3C)O[C@@H]2C)O[C@H](C)[C@H]1O[C@@H]1O[C@H](CO)[C@@H](O)[C@H](O)[C@H]1O	0.0452 µM (active)	0.065 µM (active)	< 0.01 µM (active)	0.0237 µM (active)	0.0615 µM (active)	< 0.01 µM (active)	< 0.0161 µM (active)	< 0.01 µM (active)	< 0.01 µM (active)	< 0.01 µM (active)	0.048 µM (active)	0.0342 µM (active)	0.132 µM (active)	< 0.0148 µM (active)	0.0387 µM (active)	0.0288 µM (active)	0.0174 µM (active)	> 100 µM (inactive)	0.103 µM (active)	< 0.01 µM (active)
COC(=O)C12CCC(C(F)(F)C1=O)C2(C)C (stereo not drawn)	> 100 µM (inactive)	> 100 µM (inactive)	> 100 µM (inactive)	> 100 µM (inactive)	> 100 µM (inactive)	> 100 µM (inactive)	> 100 µM (inactive)	> 100 µM (inactive)	> 100 µM (inactive)	> 100 µM (inactive)	> 100 µM (inactive)	> 100 µM (inactive)	> 100 µM (inactive)		> 100 µM (inactive)	> 100 µM (inactive)	> 100 µM (inactive)	> 100 µM (inactive)	> 100 µM (inactive)	> 100 µM (inactive)
O=Cc1ccc(-c2ccc(-c3ccc(CO)s3)o2)s1	35.7 µM (inactive)	42.6 µM (inactive)	0.372 µM (active)	5.48 µM (inactive)	3.22 µM (inactive)	14.8 µM (inactive)	14.5 µM (inactive)	21.9 µM (inactive)	17.4 µM (inactive)	0.547 µM (active)	17.5 µM (inactive)		0.151 µM (active)	23.5 µM (inactive)	2.21 µM (inactive)	5.74 µM (inactive)	0.237 µM (active)	2.92 µM (inactive)	0.0681 µM (active)	15.7 µM (inactive)
